Patent US20100137258A1, “THIOPHOSPHI(O)NIC ACID DERIVATIVES AND THEIR THERAPEUTICAL APPLICATIONS” (priority 2007, published 2010)
Like-named read-outs stand apart in the source and are kept apart here.

Key:
group III mGlu receptors [1] = conditions: cited from earlier work
mGlu4 = molecular target: T1, mGlu4 (Rattus norvegicus, UniProt P31423); format: cell-based
T1 construct: expressed in transfected cells; host or cells: HEK293 (transient, electroporation)
Source text: (§1) These receptors were transiently expressed in HEK-293 cells as previously described. Since group III mGlu receptors are not naturally coupled to phospholipase-C but rather inhibit adenylyl cyclase, receptors were co-transfected with a chimeric G-protein alpha subunit which is recognized by these receptors but effectively activates the phospholipase-C pathway. Thus, the functional assay consisted in measuring the total inositol phosphate production resulting from receptor activation (ref. 10, 11).
(§2) Cell culture and transfection. Pharmacological experiments were carried out using HEK293 cells. Cells were cultured in Dulbecco's modified Eagle's medium supplemented with 10% foetal calf serum (FCS) and antibiotics (Penicillin and Streptomycin, 100 U/mL final).
(§3) Cells were transiently transfected with rat clones of group-III mGlu receptors (mGlu4, mGlu6, mGlu7 and mGlu8) by electroporation as described elsewhere (ref. 6) and plated in 96-well microplates. The high affinity glutamate transporter EAAC1 was also co-transfected with the receptor in order to avoid any influence of glutamate released by the cells in the assay medium. Since group-III mGluRs activates naturally Gi/o-proteins which modulate the adenylyl-cyclase pathway, these receptors were co-transfected with a chimeric G-protein which is recognized by these receptors but couples to the phospholipase-C pathway, thus leading to inositol phosphate (IP) production following receptor activation (ref. 7). Receptor activity was then determined by measurement of the IP production.
(§4) Functional assay. Inositol phosphate determination experiments in 96-well microplates were performed as already described (ref. 15). Briefly, 6 h following transfection, cell medium was removed and replaced by fresh medium devoid of glutamate, not complemented with FCS, and that contained ^3H-myoinositol. Cells were incubated overnight in this medium. The following day, cells were rinsed and ambient glutamate degraded by incubation in presence of GPT. Cells were stimulated by agonist for 30 min then the medium was removed and cells incubated for 1 h with cold 0.1 M formic acid which induced cell lysis. The ^3H-IP produced following receptor stimulation were recovered by ion exchange chromatography using a Dowex resin (Biorad). […] All points are realized in triplicate.

mGlu8 = molecular target: T2, mGlu8 (Rattus norvegicus, UniProt P70579); format: cell-based
T2 construct: expressed in transfected cells; host or cells: HEK293 (transient, electroporation)
T2 sequence (P70579 34-908): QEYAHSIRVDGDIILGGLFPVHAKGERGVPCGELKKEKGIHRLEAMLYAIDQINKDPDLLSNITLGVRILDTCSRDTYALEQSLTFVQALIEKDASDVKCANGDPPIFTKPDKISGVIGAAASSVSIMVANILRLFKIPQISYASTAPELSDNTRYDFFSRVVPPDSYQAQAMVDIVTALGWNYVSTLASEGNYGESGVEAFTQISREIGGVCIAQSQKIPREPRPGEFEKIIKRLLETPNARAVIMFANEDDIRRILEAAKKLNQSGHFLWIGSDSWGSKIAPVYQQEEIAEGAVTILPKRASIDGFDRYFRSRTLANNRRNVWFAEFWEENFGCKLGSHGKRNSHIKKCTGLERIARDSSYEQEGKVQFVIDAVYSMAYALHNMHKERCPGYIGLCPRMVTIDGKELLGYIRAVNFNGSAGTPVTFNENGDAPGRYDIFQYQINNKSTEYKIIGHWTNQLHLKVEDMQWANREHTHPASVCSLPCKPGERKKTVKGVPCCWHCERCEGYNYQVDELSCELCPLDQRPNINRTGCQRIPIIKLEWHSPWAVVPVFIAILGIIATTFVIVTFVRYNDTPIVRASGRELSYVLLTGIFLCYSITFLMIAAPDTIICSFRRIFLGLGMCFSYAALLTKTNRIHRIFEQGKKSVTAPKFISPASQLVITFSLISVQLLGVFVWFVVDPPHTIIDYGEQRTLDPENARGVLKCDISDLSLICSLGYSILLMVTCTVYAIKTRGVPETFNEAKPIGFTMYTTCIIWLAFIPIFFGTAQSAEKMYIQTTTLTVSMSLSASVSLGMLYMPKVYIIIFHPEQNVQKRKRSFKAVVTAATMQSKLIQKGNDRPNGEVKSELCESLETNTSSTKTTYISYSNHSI
Source text: as §1, §2, §3, §4

group III mGlu receptors [2] = assay: Agonist activity across all group III mGlu receptor subtypes (summary); format: cell-based, rat
Source text: as §1, §3
Functional assay. […]

mGlu1/5 receptors = assay: Effect at mGlu1/5 receptors; format: cell-based
mGlu7 = molecular target: T3, mGlu7 (Rattus norvegicus, UniProt P35400); assay: Inositol phosphate production in transfected HEK293 cells, mGlu7; format: cell-based
T3 construct: expressed in transfected cells; host or cells: HEK293 (transient, electroporation)
T3 sequence (P35400 35-915): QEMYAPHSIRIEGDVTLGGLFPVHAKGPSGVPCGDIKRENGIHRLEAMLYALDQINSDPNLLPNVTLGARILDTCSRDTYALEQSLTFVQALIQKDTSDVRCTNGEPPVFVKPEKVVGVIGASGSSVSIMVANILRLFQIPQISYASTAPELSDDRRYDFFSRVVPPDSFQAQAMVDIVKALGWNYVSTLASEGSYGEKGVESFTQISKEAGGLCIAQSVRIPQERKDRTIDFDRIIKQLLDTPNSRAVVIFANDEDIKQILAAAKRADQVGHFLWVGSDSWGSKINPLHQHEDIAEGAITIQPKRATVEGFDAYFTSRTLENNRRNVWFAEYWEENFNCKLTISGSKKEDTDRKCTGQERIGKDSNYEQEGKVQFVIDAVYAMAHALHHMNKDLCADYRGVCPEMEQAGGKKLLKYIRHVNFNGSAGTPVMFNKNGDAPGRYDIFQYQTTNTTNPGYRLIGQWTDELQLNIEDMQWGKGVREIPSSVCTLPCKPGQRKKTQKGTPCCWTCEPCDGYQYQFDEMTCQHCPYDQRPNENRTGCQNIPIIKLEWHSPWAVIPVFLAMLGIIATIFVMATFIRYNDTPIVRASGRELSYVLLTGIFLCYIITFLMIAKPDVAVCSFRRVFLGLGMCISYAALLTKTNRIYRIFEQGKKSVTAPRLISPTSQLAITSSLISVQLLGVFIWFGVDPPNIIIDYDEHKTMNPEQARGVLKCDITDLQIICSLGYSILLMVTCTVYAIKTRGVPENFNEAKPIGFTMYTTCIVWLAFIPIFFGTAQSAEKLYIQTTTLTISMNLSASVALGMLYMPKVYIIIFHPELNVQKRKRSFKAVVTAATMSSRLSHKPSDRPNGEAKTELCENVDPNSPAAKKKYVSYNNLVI
Source text: as §1, §2
(§5) Cells were transiently transfected with rat clones of group-III mGlu receptors (mGlu4, mGlu6, mGlu7 and mGlu8) by electroporation as described elsewhere (ref. 6) and plated in 96-well microplates. The high affinity glutamate transporter EAAC1 was also co-transfected with the receptor in order to avoid any influence of glutamate released by the cells in the assay medium. […] Receptor activity was then determined by measurement of the IP production. […]

[3] = system: group I and II mGlu receptors; assay: Selectivity versus group I and II mGlu receptors; format: cell-based
mGlu6 = molecular target: T4, mGlu6 (Rattus norvegicus, UniProt P35349); assay: Inositol phosphate production in transfected HEK293 cells, mGlu6; format: cell-based
T4 construct: expressed in transfected cells; host or cells: HEK293 (transient, electroporation)
T4 sequence (P35349 24-871): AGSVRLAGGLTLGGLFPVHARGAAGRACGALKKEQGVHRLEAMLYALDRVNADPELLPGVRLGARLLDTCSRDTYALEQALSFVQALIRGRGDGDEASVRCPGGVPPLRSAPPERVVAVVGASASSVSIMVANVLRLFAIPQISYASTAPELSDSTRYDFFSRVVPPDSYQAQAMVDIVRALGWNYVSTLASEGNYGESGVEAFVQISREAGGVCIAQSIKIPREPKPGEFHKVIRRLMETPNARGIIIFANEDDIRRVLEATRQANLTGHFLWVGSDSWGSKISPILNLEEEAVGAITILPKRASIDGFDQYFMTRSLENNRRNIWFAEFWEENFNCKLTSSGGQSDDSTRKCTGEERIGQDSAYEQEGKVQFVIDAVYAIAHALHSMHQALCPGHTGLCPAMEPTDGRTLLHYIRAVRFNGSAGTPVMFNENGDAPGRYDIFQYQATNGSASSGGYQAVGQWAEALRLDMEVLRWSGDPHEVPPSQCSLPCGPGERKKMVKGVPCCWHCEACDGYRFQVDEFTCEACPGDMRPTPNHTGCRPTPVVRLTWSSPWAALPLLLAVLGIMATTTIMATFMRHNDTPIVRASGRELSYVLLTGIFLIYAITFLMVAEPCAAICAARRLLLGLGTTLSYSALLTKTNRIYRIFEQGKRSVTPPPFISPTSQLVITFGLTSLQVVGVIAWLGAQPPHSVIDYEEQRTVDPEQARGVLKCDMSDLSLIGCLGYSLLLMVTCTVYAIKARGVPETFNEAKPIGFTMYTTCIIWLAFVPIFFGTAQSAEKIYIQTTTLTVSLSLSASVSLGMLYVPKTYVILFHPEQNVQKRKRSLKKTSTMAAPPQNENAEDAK
Source text: as §1, §2, §5

mGlu4R = mGlu4R (Homo sapiens, UniProt Q14833); conditions: read-out: EC50 as mGlu4R agonist; background statement; cited from earlier work
[4] = 31P NMR chemical shift versus pH, 27° C.
Procedure: In order to compare them, the pKa values of these amino acids were evaluated. […] Indicated pKa3 values were calculated by non-linear regression analysis using GraphPad Prism program. In addition, the ^31P NMR chemical shifts of 1 and 4 are sensitive to the ionization state, thus titration curves may be obtained from their pH dependence (ref. 7-9) (FIG. 1B). […] The pKa1 and pKa2 values are too close to be determined from the titration curves, however pKa3 and pKa4 are easily measured. […]
Each ^31P NMR spectrum was acquired at 27° C. with external H3PO4 (95%) reference at 0 ppm (sealed capillary). […] A total of 27 spectra (1) or 23 spectra (4) were recorded over a pH range of 0.50-12.50 (1) or 0.51-12.56 (4). The P NMR chemical shifts of the dianionic and monoanionic forms of the (thio)phosphonate groups were plotted against measured pH. All pKa values were calculated by non-linear regression analysis using the GraphPad Prism program (GraphPad Software Inc., San Diego Calif.) and the equation pH=pKa−log[(δa−δ)/(δ−δb)] where δ is the ^31P NMR chemical shift at varying pH, δa and δb the ^31P NMR chemical shifts with titrating group in fully acidic or basic form respectively.

mGlu2 receptor = mGlu2 receptor (Homo sapiens, UniProt Q14416); conditions: described in the literature; cited from earlier work
Sequence of mGlu2 receptor (Q14416 19-872): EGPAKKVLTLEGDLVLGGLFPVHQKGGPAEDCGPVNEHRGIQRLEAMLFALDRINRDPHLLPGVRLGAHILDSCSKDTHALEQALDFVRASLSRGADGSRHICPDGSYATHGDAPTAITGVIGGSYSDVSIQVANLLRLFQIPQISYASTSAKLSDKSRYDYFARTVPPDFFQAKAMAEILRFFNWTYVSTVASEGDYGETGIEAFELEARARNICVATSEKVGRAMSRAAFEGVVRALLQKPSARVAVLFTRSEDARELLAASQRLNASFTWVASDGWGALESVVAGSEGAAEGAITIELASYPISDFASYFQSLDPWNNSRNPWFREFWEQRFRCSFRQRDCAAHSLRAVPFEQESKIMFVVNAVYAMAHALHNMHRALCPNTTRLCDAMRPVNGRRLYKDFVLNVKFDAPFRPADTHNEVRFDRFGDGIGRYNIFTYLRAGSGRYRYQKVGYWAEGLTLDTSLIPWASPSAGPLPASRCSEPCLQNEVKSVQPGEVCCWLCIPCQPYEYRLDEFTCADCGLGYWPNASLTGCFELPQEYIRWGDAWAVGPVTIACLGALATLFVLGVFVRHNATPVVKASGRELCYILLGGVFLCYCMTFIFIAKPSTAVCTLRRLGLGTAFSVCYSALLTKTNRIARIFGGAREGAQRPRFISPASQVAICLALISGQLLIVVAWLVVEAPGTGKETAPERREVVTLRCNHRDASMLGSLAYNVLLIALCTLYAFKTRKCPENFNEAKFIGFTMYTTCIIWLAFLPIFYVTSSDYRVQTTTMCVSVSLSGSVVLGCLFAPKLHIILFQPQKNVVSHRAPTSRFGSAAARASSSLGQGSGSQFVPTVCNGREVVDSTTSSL

[5] = agonist activity, IP production, HEK-293, mean ± SEM (n)

T1 sequence (P31423 33-912): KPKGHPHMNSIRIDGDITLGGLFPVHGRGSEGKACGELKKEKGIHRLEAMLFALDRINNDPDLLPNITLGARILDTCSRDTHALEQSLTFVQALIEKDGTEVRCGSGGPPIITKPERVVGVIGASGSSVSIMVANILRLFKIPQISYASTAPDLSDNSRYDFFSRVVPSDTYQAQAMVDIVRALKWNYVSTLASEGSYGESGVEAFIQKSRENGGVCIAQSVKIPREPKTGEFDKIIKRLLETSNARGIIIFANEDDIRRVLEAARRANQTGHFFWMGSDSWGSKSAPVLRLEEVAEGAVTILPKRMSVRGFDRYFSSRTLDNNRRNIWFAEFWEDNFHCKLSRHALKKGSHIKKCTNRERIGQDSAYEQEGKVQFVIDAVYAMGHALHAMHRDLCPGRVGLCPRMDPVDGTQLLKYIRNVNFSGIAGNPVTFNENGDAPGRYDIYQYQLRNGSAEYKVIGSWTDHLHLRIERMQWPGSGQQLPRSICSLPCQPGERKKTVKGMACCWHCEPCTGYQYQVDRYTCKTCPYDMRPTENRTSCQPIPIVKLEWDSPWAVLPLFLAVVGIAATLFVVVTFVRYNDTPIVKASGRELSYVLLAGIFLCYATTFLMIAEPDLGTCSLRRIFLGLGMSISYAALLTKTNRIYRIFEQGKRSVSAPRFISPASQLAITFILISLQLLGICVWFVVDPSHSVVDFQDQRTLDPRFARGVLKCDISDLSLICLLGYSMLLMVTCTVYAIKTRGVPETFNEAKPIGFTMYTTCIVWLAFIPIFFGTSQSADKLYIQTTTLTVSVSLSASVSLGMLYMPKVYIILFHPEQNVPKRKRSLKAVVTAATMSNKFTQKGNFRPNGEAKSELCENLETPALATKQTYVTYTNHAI

Compound | activity compared to glutamate at group III mGlu receptors (group III mGlu receptors [1]) | EC50 (mGlu4) [nM] | EC50 (mGlu8) [nM] | selectivity among group III mGlu receptor subtypes (group III mGlu receptors [2]) | activity relative to L-AP4 (1) (group III mGlu receptors [2]; on all subtypes, Student's paired T test P<0.05) | effect at mGlu1/5 receptors (mGlu1/5 receptors) | EC50 (mGlu7) [µM] | agonist or antagonist activity on group I and II mGlu receptors [3] | EC50 (mGlu6) [nM] | EC50 (mGlu4; [5]) [nM] | EC50 (mGlu8; [5]) [nM] | EC50 (mGlu4R) [nM] | EC50 (mGlu7; [5]) [µM] | experimental pKa3 ([4]; second acidity of (thio)phosphonate) | experimental pKa4 ([4]; α-ammonium group) | agonist or antagonist activity on group I and II mGlu receptors ([3]; at 100 μM) | mGlu2 receptor antagonist activity (mGlu2 receptor) | EC50 (mGlu6; [5]) [nM]
N[C@@H](CCS(=O)(=O)O)C(=O)O [L-homocysteic acid] | no enhanced activity compared to glutamate | – | – | – | – | – | – | – | – | – | – | – | – | – | – | – | – | –
N[C@@H](CCP(O)(O)=S)C(=O)O [L-thioAP4, L(+)-2-Amino-4-thiophosphonobutyric acid] | – | 39 | 54 | not subtype selective | about two fold | no effect | 197 | no agonist or antagonist activity | 730 | – | – | – | – | – | – | – | – | –
N[C@@H](CCP(=O)(O)O)C(=O)O [L-AP4, L(+)-2-Amino-4-phosphonobutyric Acid] | – | – | – | – | – | no effect | – | – | – | 80 ± 17 | 128 ± 19 | 320 | 440 ± 120 | 6.88 | 9.90 | no agonist or antagonist activity | modest mGlu2 receptor antagonist | 2080 ± 380
